The record followed here is patent US20240425464A1, “Substituted Monohydrazides as Potent Antifungal Agents” (University of Kentucky Research Foundation, priority 2023, published 2024).

Common to all, as to assay: MIC determination by in vitro antifungal assay
The subject of experiment [1] is Aspergillus fumigatus NRRL 163 (Q). It is filed as cell-based. As to conditions: strain Q = A. fumigatus NRRL 163. The gist of the method:
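Broth microdilution following CLSI M27-A3/M38-A2 with minor modifications, in RPMI 1640 buffered to pH 7.0 with 0.165 M MOPS. Yeast inoculum came from an overnight YPD culture, set to OD600 0.12 (˜1×10^6 CFU/mL) and then diluted 1:100. Compounds were tested in two-fold dilutions at 0.06-31.3 μg/mL for 48 h at 35° C.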

The test system of experiment [2] is A. fumigatus NRRL 6113 (S). It is filed as cell-based, Aspergillus fumigatus. As to conditions: for MIC: strain S = A. fumigatus NRRL 6113. The method, then:
(§1) 10 mg/mL stock solutions of compounds 1a-9j were prepared in dimethyl sulfoxide (DMSO) and were stored at −20° C. in the dark. The antifungal agent amphotericin B (AmB) was purchased from VWR (Radnor PA, USA). AmB was dissolved in DMSO at a final concentration of 5 mg/mL and was stored at −20° C., protected from light. Candida albicans American Type Culture Collection (ATCC) 10231 (strain A), C. albicans ATCC 64124 (B), and C. albicans ATCC MYA-2876 (C) were obtained from Utah State University. C. albicans ATCC 90819 (D), C. albicans ATCC MYA-2310 (E), C. albicans ATCC MYA-1237 (F), C. albicans ATCC MYA-1003 (G), Candida glabrata ATCC 2001 (H), Candida krusei ATCC 6258 (I), Candida parapsilosis ATCC 22019 (J), Cryptococcus neoformans ATCC MYA-895 (M), Aspergillus terreus ATCC MYA-3633 (N), and Aspergillus flavus ATCC MYA-3631 (0) were obtained from the American Type Culture Collection (ATCC; Manassas, VA, USA). Aspergillus nidulans ATCC 38163 (P) was obtained from University of Kentucky. Clinically derived Aspergillus fumigatus NRRL 163 (Q), A. fumigatus NRRL 5109 (R), and A. fumigatus NRRL 6113 (S) were obtained from Northern Regional Research Laboratory (NRRL). Candida auris 384 (K), C. auris 390 (L), and fungal strains 381-400 (including 10 C. auris (AR Bank #381-390), 3 Candida duobushaemulonii (AR Bank #391, AR Bank #392, and AR Bank #394), 2 Candida haemulonii (AR Bank #393 and AR Bank #395), 1 Kodameae ohmeri (AR Bank #396), 1 C. krusei (AR Bank #397), 1 Candida lusitaniae (AR Bank #398), and 2 Saccharomyces cerevisiae strains (AR Bank #399 and AR Bank #400)) were part of a larger fungal library from the AR Bank maintained by the Centers for Disease Control and Prevention (CDC; Atlanta, GA, USA). Filamentous fungi and yeasts were cultivated at 35° C. in RPMI 1640 medium (with L-glutamine, without sodium bicarbonate, Sigma-Aldrich, St. Louis, MO) buffered to a pH of 7.0 with 0.165 M morpholinepropanesulfonic acid (MOPS) buffer (Sigma-Aldrich). For cytotoxicity assays, HepG2 and the mouse macrophage cell line J774A.1 were obtained from University of Kentucky. The human embryonic kidney cell line, HEK-293, was bought from the ATCC. Mammalian cells were grown in Dulbecco's Modified Eagle's Medium (DMEM) (from VWR) with 10% fetal bovine serum (FBS) (from VWR) and 1% Pen/Strep (from ATCC). Cell lines were cultured at 37° C. with 5% CO2 and passaged by trypsinization with 0.05% trypsin: 0.53 mM EDTA (from Sigma-Aldrich).
(§2) The MIC values of compounds 1a-9j against yeast cells (strains A-P and 381-400) were determined in 96-well plates as described in the CLSI documents M27-A3 and M38-A2 with minor modifications.^2 A single colony of freshly prepared yeast cells was used to inoculate 5 mL of yeast extract peptone dextrose (YPD) broth prior to incubation overnight with shaking at 200 rpm at 35° C. From the actively growing yeast culture, 100 µL were then transferred to 900 μL of RPMI 1640 medium and re-adjusted to achieve OD600 of 0.12 (˜1×10^6 CFU/mL). The cell suspension was further diluted to achieve 1:100 in RPMI 1640 medium. 100 μL of cells were added to the wells of a 96-well microtiter plates that contained 100 µL of the compound solution to obtain concentrations of 0.06-31.3 μg/mL of compounds 1a-9j or AmB prior to incubation for 48 h at 35° C.
(§3) Finally, the activity of these monohydrazides was explored against […] non-Candida strains: Cryptococcus neoformans ATCC MYA-895 (M), Aspergillus terreus ATCC MYA-3633 (N), Aspergillus flavus ATCC MYA-3631 (O), Aspergillus nidulans ATCC 38163 (P), Aspergillus fumigatus NRRL 163 (Q), A. fumigatus NRRL 5109 (R), and A. fumigatus NRRL 6113 (S) (Tables 1A and 1B). The double dilution method was used with concentrations ranging from 0.06 to 31.3 j·tg mL^−1 for monohydrazides 1a-9j, and the commercially available positive antifungal control amphotericin B (AmB).

Experiment [3] deals with A. fumigatus NRRL 5109 (R). It is filed as cell-based, Aspergillus fumigatus. As to conditions: strain R = A. fumigatus NRRL 5109. The method, then: as §1, §2, §3
Setting [4] is: Aspergillus fumigatus, NRRL163, read-out: MIC.
Where [5] appears, read: Aspergillus fumigatus, NRRL6113, read-out: MIC.
[6] abbreviates: Aspergillus fumigatus, NRRL5109, read-out: MIC.

Each structure is given as a SMILES string. ≈ marks a conversion by molar mass, not a printed value. Where two headings read alike, the source gives them in different places.

As for `O=C(NNc1cccc(F)c1)c1ccccn1` [Compound 2a], the MIC in experiment [1], in experiment [2] and in experiment [3] was above 31.3 μg/mL^−1 throughout.

In the case of `O=C(NNc1ccc(F)cc1)c1ccccn1` [Compound 2d], the MIC in experiment [1] (setting [4]) stood at 31.3 µg/mL (≈ 135 µM); in experiment [2] (setting [5]), 15.6 µg/mL (≈ 67.5 µM); in experiment [3] (setting [6]), 7.8 µg/mL (≈ 33.7 µM). For the same compound, in experiment [2], the “MIC (highest activity against strain S)” value is 15.6 j·tg mL^−1.

For the compound `O=C(NNc1ccc(F)cc1F)c1cnccn1` [Compound 9g], the MIC in experiment [1] (setting [4]), in experiment [2] (setting [5]) and in experiment [3] (setting [6]) was above 31.3 µg/mL each time.

For `O=C(NNc1cccc(F)c1)c1ccc(F)cc1F` [Compound 1a], the MIC in experiment [1], in experiment [2] and in experiment [3] was above 31.3 μg/mL^−1 each time.

Turning to `COc1ccc(NNC(=O)c2cccc(F)n2)cc1` [Compound 5f], the MIC is above 31.3 µg/mL in experiment [1] (setting [4]), 15.6 µg/mL (≈ 59.7 µM) in experiment [2] (setting [5]) and above 31.3 µg/mL in experiment [3] (setting [6]). Further, in experiment [2], the “MIC (highest activity against strain S)” value is 15.6 j·tg mL^−1.

`COc1cccc(NNC(=O)c2ccccn2)c1` [Compound 2c]: the MIC in experiment [1] is given as 7.8 μg/mL^−1; in experiment [2], above 31.3 μg/mL^−1; in experiment [3], 3.9 μg/mL^−1.

Consider `O=C(NNc1cc(F)ccc1F)c1ccccn1` [Compound 2h], for which the MIC in experiment [1] (setting [4]) was above 31.3 µg/mL; in experiment [2] (setting [5]), above 31.3 µg/mL; in experiment [3] (setting [6]), 15.6 µg/mL (≈ 62.6 µM).

As to `O=C(NNc1cc(F)cc(F)c1)c1ccccn1` [Compound 2i], the figures for the MIC in experiment [1] (setting [4]), in experiment [2] (setting [5]) and in experiment [3] (setting [6]) were at most 0.06 µg/mL, 31.3 µg/mL (≈ 126 µM) and at most 0.06 µg/mL, respectively.

Regarding `O=C(NNc1ccc(Cl)cc1)c1ccccn1` [Compound 2e], the values for the MIC in experiment [1], in experiment [2] and in experiment [3] were above 31.3 μg/mL^−1, 15.6 μg/mL^−1 and 7.8 μg/mL^−1, respectively. Also, the “MIC (highest activity against strain S)” value in experiment [2] stood at 15.6 j·tg mL^−1.

`O=C(NNc1cccc(Cl)c1)c1ccccn1` [Compound 2b]: the MIC in experiment [1], in experiment [2] and in experiment [3] was above 31.3 μg/mL^−1 in each case.

`O=C(NNc1cccc(F)c1)c1ccc(F)cn1` [Compound 3a]: the MIC in experiment [1], in experiment [2] and in experiment [3] was above 31.3 μg/mL^−1 throughout.

Consider `COc1cccc(NNC(=O)c2cnccn2)c1` [Compound 9c], for which the figures for the MIC in experiment [1] (setting [4]), in experiment [2] (setting [5]) and in experiment [3] (setting [6]) were 15.6 µg/mL (≈ 63.9 µM), above 31.3 µg/mL and 7.8 µg/mL (≈ 31.9 µM), respectively.

As for `COc1ccc(NNC(=O)c2ccc(F)cc2F)cc1` [Compound 1f], the MIC in experiment [1] (setting [4]), in experiment [2] (setting [5]) and in experiment [3] (setting [6]) was above 31.3 µg/mL throughout.

In the case of `O=C(NNc1ccc(F)cc1)c1cccc(F)n1` [Compound 5d], the MIC in experiment [1] (setting [4]) came to 31.3 µg/mL (≈ 126 µM); in experiment [2] (setting [5]), 15.6 µg/mL (≈ 62.6 µM); in experiment [3] (setting [6]) it was 15.6 µg/mL (≈ 62.6 µM).

On to `O=C(NNc1ccc(F)cc1)c1ccc(F)cc1F` [Compound 1d], for which the MIC in experiment [1] (setting [4]), in experiment [2] (setting [5]) and in experiment [3] (setting [6]) was above 31.3 µg/mL each time.

In the case of `O=C(NNc1cccc(F)c1)c1ncc(F)cc1F` [Compound 7a], the MIC in experiment [1], in experiment [2] and in experiment [3] was above 31.3 μg/mL^−1 throughout.

Turning to `COc1ccc(NNC(=O)c2ccc(F)cn2)cc1` [Compound 3f], the MIC in experiment [1], in experiment [2] and in experiment [3] was above 31.3 μg/mL^−1 each time.

Regarding `O=C(NNc1ccc(F)cc1)c1nc(F)ccc1F` [Compound 8d], the MIC is 31.3 µg/mL (≈ 117 µM) in experiment [1] (setting [4]), above 31.3 µg/mL in experiment [2] (setting [5]) and 15.6 µg/mL (≈ 58.4 µM) in experiment [3] (setting [6]).

Regarding `O=C(NNc1cc(Cl)cc(Cl)c1)c1ccccn1` [Compound 2j], the MIC in experiment [1] (setting [4]), in experiment [2] (setting [5]) and in experiment [3] (setting [6]) was above 31.3 µg/mL in each case.

With `O=C(NNc1cccc(F)c1)c1ccc(Br)cn1` [Compound 4a], the MIC in experiment [1], in experiment [2] and in experiment [3] was above 31.3 μg/mL^−1 throughout.

In the case of `COc1cccc(NNC(=O)c2ccc(F)cn2)c1` [Compound 3c], the MIC in experiment [1], in experiment [2] and in experiment [3] was above 31.3 μg/mL^−1 throughout.

As to `COc1ccc(NNC(=O)c2cnccn2)cc1` [Compound 9f], the MIC in experiment [1] (setting [4]), in experiment [2] (setting [5]) and in experiment [3] (setting [6]) was 31.3 µg/mL (≈ 128 µM) each time.

As for `O=C(NNc1ccc(Cl)cc1)c1cccc(F)n1` [Compound 5e], the “MIC (highest activity against strain S)” value in experiment [2] was found to be 15.6 j·tg mL^−1.

As for `COc1cccc(NNC(=O)c2ccc(Br)cn2)c1` [Compound 4c], the values for the MIC in experiment [1] (setting [4]), in experiment [2] (setting [5]) and in experiment [3] (setting [6]) were 15.6 µg/mL (≈ 48.4 µM), above 31.3 µg/mL and 7.8 µg/mL (≈ 24.2 µM), respectively.

Take `O=C(NNc1cccc(F)c1)c1cnccn1` [Compound 9a]: the MIC in experiment [1], in experiment [2] and in experiment [3] was above 31.3 μg/mL^−1 each time.

With `O=C(NNc1ccc(F)cc1F)c1ccccn1` [Compound 2g], the MIC in experiment [1] (setting [4]) is above 31.3 µg/mL; in experiment [2] (setting [5]) it was 31.3 µg/mL (≈ 126 µM); in experiment [3] (setting [6]), 15.6 µg/mL (≈ 62.6 µM).

Take `O=C(NNc1cccc(F)c1)c1nc(F)ccc1F` [Compound 8a]: the MIC in experiment [1], in experiment [2] and in experiment [3] was above 31.3 μg/mL^−1 in each case.

Turning to `O=C(NNc1cccc(Cl)c1)c1cnccn1` [Compound 9b], the MIC in experiment [1] (setting [4]), in experiment [2] (setting [5]) and in experiment [3] (setting [6]) was above 31.3 µg/mL throughout.

For `COc1ccc(NNC(=O)c2ccccn2)cc1` [Compound 2f], the MIC in experiment [1] (setting [4]) was above 31.3 µg/mL; in experiment [2] (setting [5]) it was 31.3 µg/mL (≈ 129 µM); in experiment [3] (setting [6]), above 31.3 µg/mL.

Take `O=C(NNc1ccc(F)cc1)c1ncc(F)cc1F` [Compound 7d]: the MIC in experiment [1] (setting [4]), in experiment [2] (setting [5]) and in experiment [3] (setting [6]) was above 31.3 µg/mL each time.

Consider `COc1ccc(NNC(=O)c2ncc(F)cc2F)cc1` [Compound 7f], for which the MIC in experiment [1] (setting [4]), in experiment [2] (setting [5]) and in experiment [3] (setting [6]) was 31.3 µg/mL (≈ 112 µM) throughout.

Regarding `C[C@@H]1[C@H](O)[C@@H](C)/C=C/C=C/C=C/C=C/C=C/C=C/C=C/[C@H](O[C@@H]2O[C@H](C)[C@@H](O)[C@H](N)[C@@H]2O)C[C@@H]2O[C@](O)(C[C@@H](O)C[C@@H](O)[C@H](O)CC[C@@H](O)C[C@@H](O)CC(=O)O[C@H]1C)C[C@H](O)[C@H]2C(=O)O` [AmB, amphotericin B, reference compound], the MIC is 0.98 μg/mL^−1 in experiment [1], 1.95 μg/mL^−1 in experiment [2] and 0.98 μg/mL^−1 in experiment [3].
